Patent US20250313544A1, “INHIBITORS OF GLUTATHIONE S-TRANSFERASE ZETA 1 (GSTZ1) AND METHODS OF USE” (H. LEE MOFFITT CANCER CENTER AND RESEARCH INSTITUTE, INC., priority 2022, published 2025)

What was measured:
GSTZ1 = molecular target: T1, GSTZ1 (Homo sapiens, UniProt O43708); assay: GSTZ1 enzymatic activity assay (CNBF-GSH adduct absorbance at 420 nm); assay type: biochemical; design: dose or concentration left out as unconfirmed; conditions: without UV irradiation, 10 mins, room temperature
T1 sequence (O43708 1-216): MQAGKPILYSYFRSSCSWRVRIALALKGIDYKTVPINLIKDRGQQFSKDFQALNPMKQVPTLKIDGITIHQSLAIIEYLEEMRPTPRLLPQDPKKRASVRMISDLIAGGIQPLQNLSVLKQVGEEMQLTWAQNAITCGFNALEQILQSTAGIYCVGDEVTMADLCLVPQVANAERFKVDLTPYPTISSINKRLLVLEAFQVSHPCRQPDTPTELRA
Experimental: The GSTZ1 activity assay with its substrate 4-Chloro-7-nitrobenzofurazan (CNBF) was read at 420 nm, which indicates the absorbance of CNBF-GSH adducts as previously reported^61. For experiments without UV irradiation, the reaction was started by adding DMSO or probe 17, 10 μg of recombinant GSTZ1 proteins, 0.2 mM of CNBF, and 2 mM of GSH at room temperature in a final volume of 100 μl HEPES buffer at pH 5.5. For UV irradiation experiments, GSTZ1 protein was incubated with DMSO or probe 17 for 10 minutes under UV light. Each reaction was performed as at least two biological replicates. Spectrophotometry measurements were recorded using an M5 Spectramax plate reader (Molecular devices). Data was processed and analyzed using Excel and GraphPad Prism 9.0. Optical density (OD) readouts of GSTZ1-catalyzed reactions were corrected by subtracting measurements of non-enzymatic reactions. Relative GSTZ1 activity was calculated by normalizing corrected OD readouts of GSTZ1-catalyzed reactions with probe 17 to that of GSTZ1-catalyzed reactions without probe 17. For assays with UV irradiation, recombinant GSTZ1 was produced in-house. To this end, 6His-GFP tag full length human GSTZ1 (Uniprot ID: 043708) with TEV protease cleavage site in pET28-a-(+) vector (GeneScript) was transformed into BL21 DE3 cells (Cat #EC0114, ThermoFisher). […]

[1] = test system: H1792 cells harboring KRAS G12C; assay: Cell viability assay (CellTiter-Glo) in H1792 cells; assay type: cell-based, human; conditions: probe combined with sotorasib in H1792 cells, dose of 50 μM (FIG. 9D)
Experimental: (§1) Cells were seeded in Corning 384-well black walled/clear bottom microplates with a density of 1,000 cells/well and treated with indicated drugs and concentrations following cell attachment for 24 h. After 72 h or 96 h, as indicated, cell viability was evaluated with CellTiter-Glo (Promega, Madison, WI) according to manufacturer's recommendations. An M5 Spectramax plate reader (Molecular devices) was used to read the plates with 500 ms integration. Data was processed and analyzed using Excel and GraphPad Prism 9.0.

[2] = test system: H520 cells harboring amplified FGFR1; assay: Cell viability assay (CellTiter-Glo) in H520 cells; assay type: cell-based, human; conditions: probe combined with infigratinib in H520 cells, dose of 5 μM (FIG. 9E)
Experimental: as §1

GSTZ1 activity reduced by (GSTZ1): 68%
Compound: C#CCCC1(CCC(=O)N2CCC(COc3nc4ccccc4nc3C)CC2)N=N1 [Probe 17, 3-(3-(but-3-yn-1-yl)-3H-diazirin-3-yl)-1-(4-(((3-methylquinoxalin-2-yl)oxy)methyl)piperidin-1-yl)propan-1-one]
sensitization of cells towards sotorasib [1]: significantly enhanced the sensitivity
sensitization of cells towards infigratinib [2]: significantly enhanced the sensitivity
